These are literature values, as cited in US7303775B1, “Carbohydrate ruminant feed energy supplement and method” (Penn State Research Foundation, priority 2003, dated 2007).

One data set deals with rat liver. As to conditions: compared with glucose.
In a further data set the test system is insulin. The following applies: compared with sucrose or glucose.
Another data set relates to glucagon. As to conditions: oral, same dose, humans.

Turning to `O=C(CO)[C@@H](O)[C@H](O)[C@H](O)CO` [fructose], in the data set on rat liver, the “rate of conversion to fat by rat liver” value is reported as “much higher rate”. In addition, in the data set on insulin, the “potency as insulin secretagogue” value was “less potent”. In addition, in the data set on glucagon, the effect on glucagon entry is reported as “did not”.

Regarding `OC[C@H]1O[C@@](CO)(O[C@H]2O[C@H](CO)[C@@H](O)[C@H](O)[C@H]2O)[C@@H](O)[C@@H]1O` [sucrose, reference compound], the effect on glucagon entry in the data set with glucagon is listed as “decline”.
